Experimental data: US20240000872A1, “NOVEL BACTERIOPHAGE THAT LYSES ACINETOBACTER GENUS BACTERIA HAVING RESISTANCE TO ANTIBIOTICS” (priority 2020, published 2024)

System: Acinetobacter baumannii strains
Assay: Antibiotic susceptibility test (CLSI disk diffusion test method, read per CLSI 2016)
Format: cell-based
Parameters: antibiotic susceptibility test value / susceptibility test value (number given before S/I/R) / antibiotic susceptibility value: unit not given here
Method: (§1) Strain identification was performed using a kit such as AT 32 GN system (bioMérieux, Marcy l'Etoile, France). […] In Table 2 below, S, I, and R are the results obtained by evaluating susceptibility to the antibacterial agents, in which ‘S’ means susceptible, ‘I’ means intermediate, and ‘R’ means resistant.
as §1, with “as ATB” for “as AT”, “system (bioMédrieux,” for “system (bioMérieux,”, “Table 6” for “Table 2”
as §1, with “as ATB” for “as AT”, “Table 10” for “Table 2”, “susceptible, T” for “susceptible, ‘I’”

cortrimoxazole
antibiotic susceptibility class (host strain YMC14/01/C29): R
antibiotic susceptibility test value (host strain YMC14/01/C29): 320
antibiotic susceptibility class (host strain YMC14/01/IP122): S
antibiotic susceptibility test value (host strain YMC14/01/IP122): 20
antibiotic susceptibility class (host strain YMC14/01/L8): R
antibiotic susceptibility test value (host strain YMC14/01/L8): 320
antibiotic susceptibility class (host strain YMC14/01/P31): R
antibiotic susceptibility test value (host strain YMC14/01/P31): 160
antibiotic susceptibility class (host strain YMC14/01/P117): R
antibiotic susceptibility test value (host strain YMC14/01/P117): 160
antibiotic susceptibility class (host strain YMC14/01/P224): R
antibiotic susceptibility test value (host strain YMC14/01/P224): 320
antibiotic susceptibility class (host strain YMC14/01/P727): R
antibiotic susceptibility test value (host strain YMC14/01/P727): 320
antibiotic susceptibility class (host strain YMC14/01/P728): R
antibiotic susceptibility test value (host strain YMC14/01/P728): 160
antibiotic susceptibility class (host strain YMC14/01/R130): R
antibiotic susceptibility test value (host strain YMC14/01/R130): 320
antibiotic susceptibility class (host strain YMC14/01/R160): R
antibiotic susceptibility test value (host strain YMC14/01/R160): 320
antibiotic susceptibility class (host strain YMC14/01/R198): R
antibiotic susceptibility test value (host strain YMC14/01/R198): 320
antibiotic susceptibility class (host strain YMC14/01/R257): R
antibiotic susceptibility test value (host strain YMC14/01/R257): 320
antibiotic susceptibility class (host strain YMC14/01/R270): R
antibiotic susceptibility test value (host strain YMC14/01/R270): 320
antibiotic susceptibility class (host strain YMC14/01/R324): R
antibiotic susceptibility test value (host strain YMC14/01/R324): 160
antibiotic susceptibility class (host strain YMC14/01/R443): R
antibiotic susceptibility test value (host strain YMC14/01/R443): 320
antibiotic susceptibility class (host strain YMC14/01/R451): R
antibiotic susceptibility test value (host strain YMC14/01/R451): 320
antibiotic susceptibility class (host strain YMC14/01/R560): R
antibiotic susceptibility test value (host strain YMC14/01/R560): 160
antibiotic susceptibility class (host strain YMC14/01/R617): R
antibiotic susceptibility test value (host strain YMC14/01/R617): 320
antibiotic susceptibility class (host strain YMC14/01/R671): R
antibiotic susceptibility test value (host strain YMC14/01/R671): 320
antibiotic susceptibility class (host strain YMC14/01/R732): R
antibiotic susceptibility test value (host strain YMC14/01/R732): 320
antibiotic susceptibility class (host strain YMC14/01/R767): R
antibiotic susceptibility test value (host strain YMC14/01/R767): 160
antibiotic susceptibility class (host strain YMC14/01/R904): S
antibiotic susceptibility test value (host strain YMC14/01/R904): 20
antibiotic susceptibility class (host strain YMC14/01/R905): R
antibiotic susceptibility test value (host strain YMC14/01/R905): 320
antibiotic susceptibility class (host strain YMC14/01/R921): S
antibiotic susceptibility test value (host strain YMC14/01/R921): 40
antibiotic susceptibility class (host strain YMC14/01/R941): R
antibiotic susceptibility test value (host strain YMC14/01/R941): 320
antibiotic susceptibility class (host strain YMC14/01/R958): R
antibiotic susceptibility test value (host strain YMC14/01/R958): 320
antibiotic susceptibility class (host strain YMC14/01/R1006): R
antibiotic susceptibility test value (host strain YMC14/01/R1006): 320
antibiotic susceptibility class (host strain YMC14/01/R1199): R
antibiotic susceptibility test value (host strain YMC14/01/R1199): 160
antibiotic susceptibility class (host strain YMC14/01/R1659): R
antibiotic susceptibility test value (host strain YMC14/01/R1659): 320
antibiotic susceptibility class (host strain YMC14/01/R1722): R
antibiotic susceptibility test value (host strain YMC14/01/R1722): 320
antibiotic susceptibility class (host strain YMC14/01/R1752): S
antibiotic susceptibility test value (host strain YMC14/01/R1752): 20
antibiotic susceptibility class (host strain YMC14/01/R2429): R
antibiotic susceptibility test value (host strain YMC14/01/R2429): 160
antibiotic susceptibility class (host strain YMC14/01/R2572): R
antibiotic susceptibility test value (host strain YMC14/01/R2572): 320
antibiotic susceptibility class (host strain YMC14/01/R2855): R
antibiotic susceptibility test value (host strain YMC14/01/R2855): 320
antibiotic susceptibility class (host strain YMC14/01/R2945): R
antibiotic susceptibility test value (host strain YMC14/01/R2945): 160
antibiotic susceptibility class (host strain YMC14/01/R3007): S
antibiotic susceptibility test value (host strain YMC14/01/R3007): 20
antibiotic susceptibility class (host strain YMC14/01/R3129): S
antibiotic susceptibility test value (host strain YMC14/01/R3129): 20
antibiotic susceptibility class (host strain YMC14/01/R3317): R
antibiotic susceptibility test value (host strain YMC14/01/R3317): 160
antibiotic susceptibility class (host strain YMC14/01/R3474): R
antibiotic susceptibility test value (host strain YMC14/01/R3474): 160
antibiotic susceptibility class (host strain YMC14/01/R3574): R
antibiotic susceptibility test value (host strain YMC14/01/R3574): 160
antibiotic susceptibility class (host strain YMC14/01/U313): R
antibiotic susceptibility test value (host strain YMC14/01/U313): 320
antibiotic susceptibility class (host strain YMC14/01/U318): R
antibiotic susceptibility test value (host strain YMC14/01/U318): 320
antibiotic susceptibility class (host strain YMC14/02/L18): R
antibiotic susceptibility test value (host strain YMC14/02/L18): 160
antibiotic susceptibility class (host strain YMC14/02/P47): R
antibiotic susceptibility test value (host strain YMC14/02/P47): 320
antibiotic susceptibility class (host strain YMC14/02/R1860): R
antibiotic susceptibility test value (host strain YMC14/02/R1860): 320
antibiotic susceptibility class (host strain YMC14/02/R2417): R
antibiotic susceptibility test value (host strain YMC14/02/R2417): 320
antibiotic susceptibility class (host strain YMC14/02/R2599): S
antibiotic susceptibility test value (host strain YMC14/02/R2599): 20
antibiotic susceptibility class (host strain YMC14/02/R2668): R
antibiotic susceptibility test value (host strain YMC14/02/R2668): 320
antibiotic susceptibility class (host strain YMC14/02/R2758): R
antibiotic susceptibility test value (host strain YMC14/02/R2758): 320
antibiotic susceptibility class (host strain YMC14/02/R2781): R
antibiotic susceptibility test value (host strain YMC14/02/R2781): 160
antibiotic susceptibility class (host strain YMC14/02/R3106): R
antibiotic susceptibility test value (host strain YMC14/02/R3106): 320
antibiotic susceptibility class (host strain YMC14/02/R3419): R
antibiotic susceptibility test value (host strain YMC14/02/R3419): 320
antibiotic susceptibility class (host strain YMC14/02/U1607): S
antibiotic susceptibility test value (host strain YMC14/02/U1607): 20
antibiotic susceptibility class (host strain YMC14/03/L9): R
antibiotic susceptibility test value (host strain YMC14/03/L9): 160
antibiotic susceptibility class (host strain YMC14/03/P471): S
antibiotic susceptibility test value (host strain YMC14/03/P471): 20
antibiotic susceptibility class (host strain YMC14/03/R122): S
antibiotic susceptibility test value (host strain YMC14/03/R122): 20
antibiotic susceptibility class (host strain YMC14/03/R217): R
antibiotic susceptibility test value (host strain YMC14/03/R217): 160
antibiotic susceptibility class (host strain YMC14/03/R380): R
antibiotic susceptibility test value (host strain YMC14/03/R380): 320
antibiotic susceptibility class (host strain YMC14/03/R618): S
antibiotic susceptibility test value (host strain YMC14/03/R618): 20
antibiotic susceptibility class (host strain YMC14/03/R2144): R
antibiotic susceptibility test value (host strain YMC14/03/R2144): 160
antibiotic susceptibility class (host strain YMC14/03/U4616): R
antibiotic susceptibility test value (host strain YMC14/03/U4616): 160
antibiotic susceptibility class (host strain YMC14/04/R1078): S
antibiotic susceptibility test value (host strain YMC14/04/R1078): 20
antibiotic susceptibility class (host strain YMC14/04/R1080): S
antibiotic susceptibility test value (host strain YMC14/04/R1080): 20
antibiotic susceptibility S/I/R (host strain YMC14/06/R2359): R
antibiotic susceptibility value (host strain YMC14/06/R2359): 320
susceptibility category (S/I/R) (host strain YMC14/06/R2359): R
susceptibility test value (number given before S/I/R) (host strain YMC14/06/R2359): 320
antibiotic susceptibility S/I/R (host strain YMC14/08/R1169): R
antibiotic susceptibility value (host strain YMC14/08/R1169): 320
susceptibility category (S/I/R) (host strain YMC14/08/R1169): R
susceptibility test value (number given before S/I/R) (host strain YMC14/08/R1169): 320
antibiotic susceptibility S/I/R (host strain YMC14/08/T90): R
antibiotic susceptibility value (host strain YMC14/08/T90): 320
susceptibility category (S/I/R) (host strain YMC14/08/T90): R
susceptibility test value (number given before S/I/R) (host strain YMC14/08/T90): 320
antibiotic susceptibility S/I/R (host strain YMC15/02/R436): R
antibiotic susceptibility value (host strain YMC15/02/R436): 320
susceptibility category (S/I/R) (host strain YMC15/02/R436): R
susceptibility test value (number given before S/I/R) (host strain YMC15/02/R436): 320
antibiotic susceptibility S/I/R (host strain YMC15/02/T28): R
antibiotic susceptibility value (host strain YMC15/02/T28): 320
susceptibility category (S/I/R) (host strain YMC15/02/T28): R
susceptibility test value (number given before S/I/R) (host strain YMC15/02/T28): 320
antibiotic susceptibility S/I/R (host strain YMC15/03/R1604): R
antibiotic susceptibility value (host strain YMC15/03/R1604): 320
susceptibility category (S/I/R) (host strain YMC15/03/R1604): R
susceptibility test value (number given before S/I/R) (host strain YMC15/03/R1604): 320
antibiotic susceptibility S/I/R (host strain YMC15/09/R1869): R
antibiotic susceptibility value (host strain YMC15/09/R1869): 320
susceptibility category (S/I/R) (host strain YMC15/09/R1869): R
susceptibility test value (number given before S/I/R) (host strain YMC15/09/R1869): 320
antibiotic susceptibility S/I/R (host strain YMC16/01/P11): R
antibiotic susceptibility value (host strain YMC16/01/P11): 320
susceptibility category (S/I/R) (host strain YMC16/01/P11): R
susceptibility test value (number given before S/I/R) (host strain YMC16/01/P11): 320
antibiotic susceptibility S/I/R (host strain YMC16/01/R123): R
antibiotic susceptibility value (host strain YMC16/01/R123): 160
susceptibility category (S/I/R) (host strain YMC16/01/R123): R
susceptibility test value (number given before S/I/R) (host strain YMC16/01/R123): 160
antibiotic susceptibility S/I/R (host strain YMC16/01/R198): R
antibiotic susceptibility value (host strain YMC16/01/R198): 160
susceptibility category (S/I/R) (host strain YMC16/01/R198): R
susceptibility test value (number given before S/I/R) (host strain YMC16/01/R198): 160
antibiotic susceptibility S/I/R (host strain YMC16/01/R353): R
